Data set [1] in a line: in vitro. As to conditions: human, microsomes, pH 7.6.
The target of data set [2] is human Somatostatin 4 Receptor (SSTR4) (Homo sapiens (Human), UniProt P31391). Kind of data set: cAMP assay with human somatostatin 4 receptor (hSSTR4 expressing H4 cells). It is filed as cell-based. As to conditions: read-out: SSTR4 agonism EC50. (In general: Cyclic AMP is a second messenger, typically raised through Gs and lowered through Gi signalling.)

Some results are limits rather than exact numbers.

Chain of human Somatostatin 4 Receptor (SSTR4) (P31391 whole entry): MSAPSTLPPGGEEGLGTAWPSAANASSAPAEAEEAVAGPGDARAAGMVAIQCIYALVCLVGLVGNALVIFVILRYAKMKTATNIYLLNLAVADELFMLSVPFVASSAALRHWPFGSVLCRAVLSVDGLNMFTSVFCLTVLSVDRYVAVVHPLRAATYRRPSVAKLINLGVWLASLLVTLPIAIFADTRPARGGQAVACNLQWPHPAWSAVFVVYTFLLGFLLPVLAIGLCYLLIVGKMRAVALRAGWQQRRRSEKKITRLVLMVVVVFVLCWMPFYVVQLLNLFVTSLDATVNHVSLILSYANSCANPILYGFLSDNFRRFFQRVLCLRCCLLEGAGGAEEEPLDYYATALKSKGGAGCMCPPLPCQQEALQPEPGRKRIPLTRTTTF

As a reminder, the half-life is the time in which the quantity being followed falls by half. What is called EC50 is the midpoint of the concentration-response curve. As for `Cn1nc(C(C)(C)NC(=O)C2CNCCOC2)c2ccccc21` (racemic) [Example 20], in data set [1], the half-life at 1 μM is > 2.17 h. Moreover, the EC50 in data set [2] is 0.0039 µM.

On to `Cn1nc(C(C)(C)NC(=O)C2CNCCCO2)c2ccccc21` (racemic) [Example 23], for which the half-life at 1 μM in data set [1] was > 2.17 h. Further, in data set [2], the EC50 turned out to be 0.0365 µM.

Take `Cn1nc(C(C)(C)NC(=O)C2CCNCCO2)c2ccccc21` (racemic) [Example 26]: the half-life at 1 μM in data set [1] was > 2.17 h. The EC50 in data set [2] was 0.0613 µM.

For the compound `Cc1nnc(C(C)(C)NC(=O)C2CNCCOC2)c2ccccc12` (racemic) [Example 37], in data set [1], the half-life at 1 μM is > 2.17 h. Also, in data set [2], the EC50 worked out at 0.0117 µM.

In the case of `Cc1cc2ccccc2c(C(C)(C)NC(=O)C2CNCCOC2)n1` (racemic) [Example 44], in data set [1], the half-life at 1 μM was > 2.17 h. Moreover, the EC50 in data set [2] was 0.007 µM.

Consider `Cc1cccn2c(C(C)(C)NC(=O)C3CNCCOC3)ncc12` (racemic) [Example 116], for which the half-life at 1 μM in data set [1] was > 2.17 h. Further, the EC50 in data set [2] was 0.0093 µM.

As for `Cc1cccn2c(C(C)(C)NC(=O)C3CNCCOC3)nc(C)c12` (racemic) [Example 128], the half-life at 1 μM in data set [1] is > 2.17 h. For the same compound, in data set [2], the EC50 was 0.005 µM.

Consider `Cn1nc(C(C)(C)NC(=O)C2CCNCCO2)c2ccccc21` (single isomer, unassigned) [Example 27], for which the half-life at 1 μM in data set [1] is > 2.17 h. The EC50 in data set [2] came to 0.0558 µM.

In the case of `Cc1cccc2c(C(C)(C)NC(=O)C3CNCCOC3)cnn12` (single isomer, unassigned) [Example 34], the half-life at 1 μM in data set [1] is > 2.17 h. In data set [2], the EC50 was 0.0057 µM.

For the compound `Cc1ncc(C(C)(C)NC(=O)C2CNCCOC2)c2ccccc12` (single isomer, unassigned) [Example 41], the half-life at 1 μM in data set [1] was > 2.17 h. Also, in data set [2], the EC50 came to 0.0007 µM.

For the compound `Cc1cc2ccccc2c(C(C)(C)NC(=O)C2CNCCOC2)n1` (single isomer, unassigned) [Example 46], in data set [1], the half-life at 1 μM was > 2.17 h. In addition, in data set [2], the EC50 stood at 0.0034 µM.

Take `Cc1cc2ccccc2c(C(C)(C)NC(=O)C2CNCCCO2)n1` (single isomer, unassigned) [Example 48]: the half-life at 1 μM in data set [1] was > 2.17 h. Also, in data set [2], the EC50 turned out to be 0.0189 µM.

With `Cc1cccc2c(C(C)(C)NC(=O)C3CNCCOC3)noc12` (single isomer, unassigned) [Example 55], the half-life at 1 μM in data set [1] is > 2.17 h. The EC50 in data set [2] turned out to be 0.0029 µM.

With `Cc1cccc2c(C(C)(C)NC(=O)C3CNCCOC3)n[nH]c12` (single isomer, unassigned) [Example 60], the half-life at 1 μM in data set [1] is > 2.17 h. Also, in data set [2], the EC50 is 0.0013 µM.

Consider `Cn1nc(C(C)(C)NC(=O)C2CNCCOC2)c2cccc(F)c21` (single isomer, unassigned) [Example 77], for which the half-life at 1 μM in data set [1] was > 2.17 h. In data set [2], the EC50 was found to be 0.0051 µM.

As to `Cn1nc(C(C)(C)NC(=O)C2CNCCOC2)c2cccc(Cl)c21` (single isomer, unassigned) [Example 82], in data set [1], the half-life at 1 μM is > 2.17 h. Besides, the EC50 in data set [2] stood at 0.003 µM.

Regarding `Cc1cccc2c(C(C)(C)NC(=O)C3CNCCOC3)nn(C)c12` (single isomer, unassigned) [Example 85], the half-life at 1 μM in data set [1] was > 2.17 h. The EC50 in data set [2] worked out at 0.002 µM.

For the compound `CC(C)(NC(=O)C1CNCCOC1)c1n[nH]c2c(F)cccc12` (single isomer, unassigned) [Example 89], the half-life at 1 μM in data set [1] was > 2.17 h. In addition, the EC50 in data set [2] came out at 0.0031 µM.

As for `CC(C)(NC(=O)C1CNCCOC1)c1n[nH]c2c(Cl)cccc12` (single isomer, unassigned) [Example 93], the half-life at 1 μM in data set [1] is > 2.17 h. Further, in data set [2], the EC50 was 0.0014 µM.

With `Cc1cccn2c(C(C)(C)NC(=O)C3CNCCOC3)ncc12` (single isomer, unassigned) [Example 117], in data set [1], the half-life at 1 μM is > 2.17 h. Also, the EC50 in data set [2] amounted to 0.0026 µM.

As to `CC(C)(NC(=O)C1CNCCOC1)c1ncc2c(Cl)cccn12` (single isomer, unassigned) [Example 120], the half-life at 1 μM in data set [1] was > 2.17 h. The EC50 in data set [2] was determined as 0.0059 µM.

For the compound `Cc1cccn2c(C(C)(C)NC(=O)C3CNCCOC3)ccc12` (single isomer, unassigned) [Example 136], in data set [1], the half-life at 1 μM was > 2.17 h. Also, the EC50 in data set [2] turned out to be 0.0037 µM.

For `Cc1cccn2c(C(C)(C)NC(=O)C3CNCCCO3)ncc12` (single isomer, unassigned) [Example 145], in data set [1], the half-life at 1 μM is > 2.17 h. Moreover, in data set [2], the EC50 came out at 0.0291 µM.

On to `Cc1cccn2c(C(C)(C)NC(=O)C3CNCCCO3)ncc12` (single isomer, unassigned) [Example 146], for which the EC50 in data set [2] was 1 µM.

`Cc1cccn2c(C(C)(C)NC(=O)C3CNCCCO3)nc(C)c12` (single isomer, unassigned) [Example 148]: in data set [2], the EC50 is 0.093 µM.

`Cc1cccn2c(C(C)(C)NC(=O)C3CNCCCO3)nc(C)c12` (single isomer, unassigned) [Example 149]: the EC50 in data set [2] was determined as 1 µM.

As to `CC(C)(NC(=O)C1CNCCOC1)c1cccc2ccccc12` (stereo not drawn) [Example 1], the EC50 in data set [2] stood at 0.0047 µM.

In the case of `Cc1cc2cccnc2c(C(C)(C)NC(=O)C2CNCCOC2)n1` (stereo not drawn) [Example 2], the EC50 in data set [2] is 0.0901 µM.

For the compound `C[C@H](NC(=O)C1CNCCOC1)c1cccc2ccccc12` (stereo partly drawn) [Example 3], in data set [2], the EC50 worked out at 0.018 µM.

As for `CC(C)(COc1cnccc1C(F)(F)F)NC(=O)C1CNCCOC1` (stereo not drawn) [Example 4], the concentration for a half-maximal effect (EC50) in data set [2] was 0.272 µM.

For `CC(C)(NC(=O)[C@@H]1CNCCO1)C1CCCCC1` [Example 7], the EC50 in data set [2] came out at 2.42 µM.

Consider `CC(C)(NC(=O)[C@H]1CNCCO1)c1cccc2ncccc12` [Example 8], for which the EC50 in data set [2] was determined as 0.258 µM.

Turning to `CC(C)(COc1cnccc1C(F)(F)F)NC(=O)[C@@H]1CNCCO1` [Example 9], the EC50 in data set [2] was 0.19 µM.

On to `C[C@H](NC(=O)[C@@H]1CNCCO1)c1cccc2ccccc12` [Example 10], for which the EC50 in data set [2] was 0.0512 µM.

Consider `CC(C)(NC(=O)[C@@H]1CNCCO1)c1ccnc2ccccc12` [Example 11], for which, in data set [2], the EC50 stood at 0.0263 µM.

Consider `CC(C)(NC(=O)C1CNCCOC1)c1nc2ccc(Cl)cc2[nH]1` (stereo not drawn) [Example 13], for which the EC50 in data set [2] amounted to 0.355 µM.

As to `CC(C)(NC(=O)[C@@H]1CNCCO1)c1nc2ccc(Cl)cc2[nH]1` [Example 14], the half-maximal effective concentration (EC50) in data set [2] was 0.796 µM.

Consider `Cc1ccccc1OCC(C)(C)NC(=O)[C@@H]1CNCCO1` [Example 15], for which the EC50 in data set [2] worked out at 0.244 µM.

In the case of `Cn1nc(C(C)(C)NC(=O)[C@@H]2CNCCO2)c2c(F)cccc21` [Example 29], the EC50 in data set [2] was found to be 0.0216 µM.

Turning to `Cn1nc(C(C)(C)NC(=O)[C@@H]2CNCCO2)c2ccc(F)cc21` [Example 30], the half-life at 1 μM in data set [1] is > 2.17 h. Also, the EC50 in data set [2] is 0.0131 µM.

With `Cn1nc(C(C)(C)NC(=O)[C@@H]2CNCCO2)c2cccc(C(F)(F)F)c21` [Example 31], the EC50 in data set [2] was 0.0527 µM.

`Cc1cccc2c(C(C)(C)NC(=O)[C@@H]3CNCCO3)cnn12` [Example 32]: the EC50 in data set [2] came to 0.0109 µM.

Take `Cc1nnc(C(C)(C)NC(=O)[C@@H]2CNCCO2)c2ccccc12` [Example 36]: the EC50 in data set [2] came to 0.0254 µM.

In the case of `Cc1ncc(C(C)(C)NC(=O)[C@@H]2CNCCO2)c2ccccc12` [Example 38], the half-life at 1 μM in data set [1] was > 2.17 h. In data set [2], the EC50 is 0.0013 µM.

With `Cc1ncc(C(C)(C)NC(=O)[C@H]2CNCCO2)c2ccccc12` [Example 39], the EC50 in data set [2] is 0.18 µM.

For `Cc1cc2ccccc2c(C(C)(C)NC(=O)[C@@H]2CNCCO2)n1` [Example 43], in data set [1], the half-life at 1 μM amounted to 1.83 h.

With `Cc1cccc2c(C(C)(C)NC(=O)[C@@H]3CNCCO3)n[nH]c12` [Example 57], the half-life at 1 μM in data set [1] was > 2.17 h. The EC50 in data set [2] was 0.0024 µM.

Turning to `CC(C)(NC(=O)[C@@H]1CNCCO1)c1noc2c(F)cccc12` [Example 61], the EC50 in data set [2] was determined as 0.147 µM.

With `CC(C)(NC(=O)[C@@H]1CNCCO1)c1noc2c(Cl)cccc12` [Example 71], the EC50 in data set [2] is 0.0351 µM.

`CC(C)(NC(=O)[C@@H]1CNCCO1)c1n[nH]c2c(F)cccc12` [Example 87]: the EC50 in data set [2] was determined as 0.0134 µM.

Consider `CC(C)(NC(=O)[C@@H]1CNCCO1)c1n[nH]c2c(Cl)cccc12` [Example 91], for which the half-life at 1 μM in data set [1] is > 2.17 h. Moreover, in data set [2], the EC50 is 0.0034 µM.

`CC(C)(NC(=O)[C@@H]1CNCCO1)c1ncc2c(Cl)cccn12` [Example 96]: in data set [1], the half-life at 1 μM was > 2.17 h. Besides, the EC50 in data set [2] was determined as 0.013 µM.

Take `Cc1cccn2c(C3(NC(=O)[C@@H]4CNCCO4)CC3)ncc12` [Example 97]: the EC50 in data set [2] came out at 0.0408 µM.

In the case of `Cc1cc(F)cn2c(C(C)(C)NC(=O)[C@@H]3CNCCO3)ncc12` [Example 100], the EC50 in data set [2] was found to be 0.103 µM.

As for `Cc1cccn2c(C3(NC(=O)[C@@H]4CNCCO4)CCC3)ncc12` [Example 102], the EC50 in data set [2] worked out at 0.031 µM.

On to `CC(C)(NC(=O)[C@@H]1CNCCO1)c1nc(C2CC2)c2c(F)cccn12` [Example 103], for which the EC50 in data set [2] was determined as 0.0607 µM.

On to `Cc1cccn2c(C(C)(C)NC(=O)[C@@H]3CNCCO3)nc(C3CC3)c12` [Example 104], for which the EC50 in data set [2] is 0.0735 µM.

For the compound `Cc1cccn2c(C(C)(C)NC(=O)[C@@H]3CNCCO3)nnc12` [Example 105], the concentration for a half-maximal effect (EC50) in data set [2] came to 0.596 µM.

As to `Cc1nc2ccccn2c1C(C)(C)NC(=O)[C@@H]1CNCCO1` [Example 106], the EC50 in data set [2] was 0.23 µM.

`Cc1cccn2c(C(C)(C)NC(=O)[C@@H]3CNCCO3)cnc12` [Example 108]: the EC50 in data set [2] was found to be 0.0581 µM.

On to `Cc1cccn2c(C(C)(C)NC(=O)[C@@H]3CNCCO3)ccc12` [Example 109], for which the half-life at 1 μM in data set [1] was 1.4 h. Besides, in data set [2], the EC50 came out at 0.0037 µM.

The values are drawn from patent publication US10071974B2, “Morpholine and 1,4-oxazepane amides as somatostatin receptor subtype 4 (SSTR4) agonists” (Boehringer Ingelheim International GmbH, priority 2014, dated 2018).
